From PubChem BioAssay AID1259408 (Genetic Toxicology Data Bank (GENE-TOX), 2018)
Active and inactive are the calls of the source. How the calls were made is not given here.

System: GENE-TOX genotoxicity assays, various organisms and cells
Test: GENE-TOX mutagenicity studies
Conditions: for call: Assay Type: In vivo carcinogenicity studies
[1] = Species/Cell Type: Drosophila melanogaster, Assay Type: Sex-linked recessive lethal gene mutation, Assay Code: SRL+, Evaluation Type: Evaluation A (Pre-1980)
[2] = Species/Cell Type: Human lymphocytes, Assay Type: Sister-chromatid exchange (SCE) in vitro, Assay Code: SCL+D, Dose Response: With dose response, Evaluation Type: Evaluation B (Post-1980)
[3] = Species/Cell Type: Human, Assay Type: Sister-chromatid exchange (SCE) in vitro, Assay Code: SC1+D, Dose Response: With dose response, Evaluation Type: Evaluation B (Post-1980)
[4] = Species/Cell Type: Nonhuman, Assay Code: CCGT, Evaluation Type: Evaluation A (Pre-1980)
[5] = Species/Cell Type: Nonhuman, Assay Type: Sister-chromatid exchange (SCE) in vitro, Assay Code: SC2+D, Dose Response: With dose response, Evaluation Type: Evaluation B (Post-1980)
[6] = Species/Cell Type: Drosophila melanogaster, Assay Type: Sex-linked recessive lethal gene mutation, Assay Code: SRLT, Evaluation Type: Evaluation A (Pre-1980)
[7] = Species/Cell Type: Mammalian polychromatic erythrocytes, Assay Type: Micronucleus test, chromosome aberrations, Assay Code: MNTT, Evaluation Type: Evaluation B (Post-1980)
[8] = Species/Cell Type: Drosophila melanogaster, Assay Type: Sex-linked recessive lethal gene mutation, Assay Code: SRL-, Evaluation Type: Evaluation A (Pre-1980)
[9] = Species/Cell Type: Mammalian polychromatic erythrocytes, Assay Type: Micronucleus test, chromosome aberrations, Assay Code: MNTT, Evaluation Type: Evaluation A (Pre-1980)
[10] = Species/Cell Type: Escherichia coli WP2, Assay Type: Tryptophan reverse gene mutation, Assay Code: WP2+, Evaluation Type: Evaluation A (Pre-1980)
[11] = Species/Cell Type: Escherichia coli WP2 UVRA, Assay Type: Tryptophan reverse gene mutation, Assay Code: WPU+, Evaluation Type: Evaluation A (Pre-1980)
[12] = Species/Cell Type: Escherichia coli WP2 UVRA, Assay Type: Tryptophan reverse gene mutation, Assay Code: WPU+D, Dose Response: With dose response, Evaluation Type: Evaluation A (Pre-1980)
[13] = Species/Cell Type: Salmonella typhimurium (one or more of the five standard strains: TA98, TA100, TA1535, TA1537, and TA1538), Assay Type: Histidine reverse gene mutation, Ames assay, Assay Code: SAL+, Evaluation Type: Evaluation A (Pre-1980)
[14] = Species/Cell Type: Human lymphocytes, Assay Type: Sister-chromatid exchange (SCE) in vitro, Assay Code: SCLT, Evaluation Type: Evaluation B (Post-1980)
[15] = Species/Cell Type: Human, Assay Type: Sister-chromatid exchange (SCE) in vitro, Assay Code: SC1T, Evaluation Type: Evaluation B (Post-1980)

`O=P(N1CC1)(N1CC1)N1CC1` was tested, and the mutagenic call [1] was “active; positive”, the mutagenic call (Species/Cell Type: Drosophila melanogaster, Sex: Male, Assay Type: Heritable translocation test, chromosome aberrations, Assay Code: DHT+, Evaluation Type: Evaluation A (Pre-1980)) was “active; positive” and the mutagenic call (Species/Cell Type: Human lymphocytes or leukocytes, Assay Type: Chromosome aberrations in vitro, Assay Code: CY7+, Evaluation Type: Evaluation A (Pre-1980)) was “active; positive”. The mutagenic call [2] was “active; positive”, the mutagenic call [3] was “active; positive” and the mutagenic call (Species/Cell Type: Mammalian germ cells, Sex: Male, Assay Type: Chromosome aberrations in vivo, Assay Code: CY9T, Evaluation Type: Evaluation A (Pre-1980)) was “no conclusion”. For the same molecule, the mutagenic call (Species/Cell Type: Mouse, Sex: Male, Assay Type: Heritable translocation test, chromosome aberrations, Assay Code: HTT+, Evaluation Type: Evaluation A (Pre-1980)) was “active; positive”, the mutagenic call (Species/Cell Type: Neurospora crassa, Assay Type: Forward gene mutation, Assay Code: NEF+, Evaluation Type: Evaluation A (Pre-1980)) was “active; positive” and the mutagenic call (Species/Cell Type: Nonhuman, Assay Type: Chromosome aberrations in vitro, Assay Code: CY&+, Evaluation Type: Evaluation A (Pre-1980)) was “active; positive”. For the same molecule, the call [4] was “no conclusion”, the mutagenic call [5] was “active; positive” and the mutagenic call (Species/Cell Type: Rodents, Sex: Male, Assay Type: Dominant lethal test, Assay Code: DLT+, Evaluation Type: Evaluation A (Pre-1980)) was “active; positive”. The mutagenic call (Species/Cell Type: Schizosaccharomyces pombe, Assay Type: Reverse gene mutation, Assay Code: YEZ+, Evaluation Type: Evaluation A (Pre-1980)) was “active; positive” and the mutagenic call (Species/Cell Type: Vicia faba, Assay Type: Chromosome aberrations, Assay Code: VIC+, Evaluation Type: Evaluation A (Pre-1980)) was “active; positive”.
For `Cc1c2ccccc2c(C)c2c1ccc1c(O)cccc12`, the mutagenic call (Species/Cell Type: Chinese hamster lung (V79) cells, Assay Type: Forward gene mutation at the HPRT or ouabain locus, Assay Code: V79-*, Activation: With metabolic activation, Evaluation Type: Evaluation A (Pre-1980)) was “inactive; negative” and the call [4] was “no conclusion”.
For `Cn1c([N+](=O)[O-])cnc1-c1nc2ccccc2n1CCCN1CCOCC1`, the mutagenic call [6] was “no conclusion” and the mutagenic call (Species/Cell Type: Saccharomyces cerevisiae, Assay Type: Mitotic recombination or gene conversion, Assay Code: YEC-, Evaluation Type: Evaluation A (Pre-1980)) was “inactive; negative”.
In the case of `CC(=O)NNC(C)=O`, the mutagenic call [7] is reported as “no conclusion”.
`O=[N+]([O-])c1cc(Cl)cc(Sc2cc(Cl)cc([N+](=O)[O-])c2O)c1O` was tested, and the mutagenic call [7] was “no conclusion”.
`CCC(=O)C(CC(C)N(C)C)(c1ccccc1)c1ccccc1` (stereo not drawn) was tested, and the mutagenic call [8] was “inactive; negative”, the mutagenic call (Species/Cell Type: Drosophila melanogaster, Sex: Male, Assay Type: Heritable translocation test, chromosome aberrations, Assay Code: DHT-, Evaluation Type: Evaluation A (Pre-1980)) was “inactive; negative” and the mutagenic call (Species/Cell Type: Human, Sex: Male, Assay Type: Sperm morphology, Assay Code: SPHT, Evaluation Type: Evaluation A (Pre-1980)) was “no conclusion”.
With `O=C[C@H](O)[C@@H](O)[C@H](O)[C@H](O)CO` the mutagenic call [9] was “no conclusion” and the mutagenic call (Species/Cell Type: Mouse, Sex: Male, Assay Type: Sperm morphology, Assay Code: SPI-, Evaluation Type: Evaluation A (Pre-1980)) was “inactive; negative”.
With `CCOc1ccc2c(c1)C(C)=CC(C)(C)N2` the mutagenic call [8] was “inactive; negative” and the mutagenic call (Species/Cell Type: Salmonella typhimurium (one or more of the five standard strains: TA98, TA100, TA1535, TA1537, and TA1538), Assay Type: Histidine reverse gene mutation, Ames assay, Assay Code: SAL-, Evaluation Type: Evaluation A (Pre-1980)) was “inactive; negative”.
In the case of `Nc1cc(Cl)c(Cl)cc1N`, the mutagenic call [7] is reported as “no conclusion”.
`O=C1OC(CN2CCOCC2)CN1/N=C/c1ccc([N+](=O)[O-])o1` (stereo not drawn) was tested, and the mutagenic call [10] was “active; positive”, the mutagenic call [11] was “active; positive” and the mutagenic call [12] was “active; positive”. For the same molecule, the call (Species/Cell Type: Nonhuman, Assay Code: CCG+, Evaluation Type: Evaluation A (Pre-1980)) was “active; positive”.
With `c1ccc(C2CO2)cc1` (stereo not drawn) the mutagenic call (Species/Cell Type: Chinese hamster lung (V79) cells, Assay Type: Forward gene mutation at the HPRT or ouabain locus, Assay Code: V79+, Evaluation Type: Evaluation A (Pre-1980)) was “active; positive”, the mutagenic call [1] was “active; positive” and the mutagenic call [12] was “active; positive”. For the same molecule, the mutagenic call (Species/Cell Type: Human diploid fibroblasts, Assay Type: Unscheduled DNA synthesis (UDS) in vitro, DNA effects, Assay Code: UDH+, Evaluation Type: Evaluation A (Pre-1980)) was “active; positive”, the mutagenic call (Species/Cell Type: Human lymphocytes, Assay Type: Micronucleus test in vitro, chromosome aberrations, Assay Code: MN7+, Evaluation Type: Evaluation A (Pre-1980)) was “active; positive” and the mutagenic call [2] was “active; positive”. The mutagenic call [3] was “active; positive”, the mutagenic call [9] was “no conclusion” and the call (Species/Cell Type: Nonhuman, Assay Code: CCG+L, Evaluation Type: Evaluation A (Pre-1980)) was “active; positive”. The mutagenic call (Species/Cell Type: Nonhuman, Assay Type: Sister-chromatid exchange (SCE) in vivo, Assay Code: SC3+, Evaluation Type: Evaluation B (Post-1980)) was “active; positive”, the mutagenic call (Species/Cell Type: Plant, Assay Type: Micronucleus test, chromosome aberrations, Assay Code: MNP+, Evaluation Type: Evaluation A (Pre-1980)) was “active; positive” and the mutagenic call (Species/Cell Type: Rodents, Sex: Male, Assay Type: Dominant lethal test, Assay Code: DLT-, Evaluation Type: Evaluation A (Pre-1980)) was “inactive; negative”. The mutagenic call (Species/Cell Type: Saccharomyces cerevisiae, Assay Type: Forward and reverse gene mutation, mitotic recombination and gene conversion, host-mediated assay, Assay Code: HME+, Evaluation Type: Evaluation A (Pre-1980)) was “active; positive”, the mutagenic call (Species/Cell Type: Saccharomyces cerevisiae, Assay Type: Mitotic recombination or gene conversion, Assay Code: YEC+*, Activation: With metabolic activation, Evaluation Type: Evaluation A (Pre-1980)) was “active; positive” and the mutagenic call [13] was “active; positive”. For the same molecule, the mutagenic call (Species/Cell Type: Schizosaccharomyces pombe, Assay Type: Forward gene mutation, Assay Code: YEY+/-*, Activation: With metabolic activation, Evaluation Type: Evaluation A (Pre-1980)) was “inactive; positive without activation, negative with activation”.
For `Nc1ccc2cc3ccccc3nc2c1`, the mutagenic call (Species/Cell Type: Mouse (BALB/c-3T3) cells, Assay Type: Cell transformation, Assay Code: CTB-, Evaluation Type: Evaluation A (Pre-1980)) was “inactive; negative”.
`CNC(=O)C(C)SCCSP(=O)(OC)OC` (stereo not drawn) was tested, and the mutagenic call (Species/Cell Type: Bacillus subtilis (H17 vs M45), Assay Type: Rec-assay, spot test, DNA effects (bacterial DNA repair), Assay Code: REW+, Evaluation Type: Evaluation A (Pre-1980)) was “active; positive”, the mutagenic call [10] was “active; positive” and the mutagenic call [11] was “active; positive”. The mutagenic call [5] was “active; positive” and the mutagenic call [13] was “active; positive”.
`CN[C@H]1CCc2cc(OC)c(OC)c(OC)c2-c2ccc(OC)c(=O)cc21` was tested, and the mutagenic call (Species/Cell Type: Drosophila melanogaster, Assay Type: Aneuploidy, sex chromosome gain, chromosome aberrations, Assay Code: DAG+F, Evaluation Type: Evaluation A (Pre-1980)) was “active; positive”, the mutagenic call (Species/Cell Type: Drosophila melanogaster, Assay Type: Aneuploidy, whole sex chromosome loss, chromosome aberrations, Assay Code: DAC+F, Evaluation Type: Evaluation A (Pre-1980)) was “active; positive” and the mutagenic call [14] was “no conclusion”. For the same molecule, the mutagenic call [15] was “no conclusion”, the mutagenic call (Species/Cell Type: Mammalian polychromatic erythrocytes, Assay Type: Micronucleus test, chromosome aberrations, Assay Code: MNT+, Evaluation Type: Evaluation A (Pre-1980)) was “active; positive” and the mutagenic call (Species/Cell Type: Nonhuman, Assay Type: Sister-chromatid exchange (SCE) in vitro, Assay Code: SC2T, Evaluation Type: Evaluation B (Post-1980)) was “no conclusion”.
For `Nc1nc(=O)n([C@H]2C[C@H](O)[C@@H](CO)O2)cc1Br`, the mutagenic call (Species/Cell Type: Arabidopsis species, Assay Type: Gene mutation, Assay Code: ARM+, Evaluation Type: Evaluation A (Pre-1980)) was “active; positive”, the mutagenic call [6] was “no conclusion” and the mutagenic call [14] was “no conclusion”. For the same molecule, the mutagenic call [15] was “no conclusion” and the mutagenic call (Species/Cell Type: Syrian hamster embryo (SA7/SHE) cells, Assay Type: Cell transformation, viral enhanced, Assay Code: CT7+, Evaluation Type: Evaluation A (Pre-1980)) was “active; positive”.
For `Cc1ccc(N=Nc2c(O)c(C(=O)O)cc3ccccc23)c(S(=O)(=O)O)c1`, the mutagenic call (Species/Cell Type: Salmonella typhimurium (one or more of the five standard strains: TA98, TA100, TA1535, TA1537, and TA1538), Assay Type: Histidine reverse gene mutation, Ames assay, Assay Code: SALT, Evaluation Type: Evaluation A (Pre-1980)) was “no conclusion”.
With `C=CC(=O)OC` the mutagenic call (Species/Cell Type: Mammalian polychromatic erythrocytes, Assay Type: Micronucleus test, chromosome aberrations, Assay Code: MNT+U, Dose Response: Unconfirmed positive response, Evaluation Type: Evaluation B (Post-1980)) was “active; positive”.
With `O=C(O)CNc1ccc(O)cc1` the mutagenic call (Species/Cell Type: Allium cepa, Assay Type: Chromosome aberrations, Assay Code: ALC+, Evaluation Type: Evaluation A (Pre-1980)) was “active; positive”.
